Experimental data: article PMC4573970, “Further validation to support clinical translation of [^18F]FTC-146 for imaging sigma-1 receptors” (EJNMMI Research, 2015)

What was measured:
sigma-1 receptor (S1R) = target: T1, sigma-1 receptor (S1R) (Mus musculus, UniProt O55242); test: in vivo PET blocking of […]FTC-146 ([…] mg/kg), with S1R-KO control; type: cell-based
T1 construct: gene Sigmar1; native receptor in WT mouse brain

[1] = target: T2, vesicular acetylcholine transporter (VAChT) (Homo sapiens, UniProt Q16572)
T2 construct: gene SLC18A3
T2 sequence (Q16572 1-532): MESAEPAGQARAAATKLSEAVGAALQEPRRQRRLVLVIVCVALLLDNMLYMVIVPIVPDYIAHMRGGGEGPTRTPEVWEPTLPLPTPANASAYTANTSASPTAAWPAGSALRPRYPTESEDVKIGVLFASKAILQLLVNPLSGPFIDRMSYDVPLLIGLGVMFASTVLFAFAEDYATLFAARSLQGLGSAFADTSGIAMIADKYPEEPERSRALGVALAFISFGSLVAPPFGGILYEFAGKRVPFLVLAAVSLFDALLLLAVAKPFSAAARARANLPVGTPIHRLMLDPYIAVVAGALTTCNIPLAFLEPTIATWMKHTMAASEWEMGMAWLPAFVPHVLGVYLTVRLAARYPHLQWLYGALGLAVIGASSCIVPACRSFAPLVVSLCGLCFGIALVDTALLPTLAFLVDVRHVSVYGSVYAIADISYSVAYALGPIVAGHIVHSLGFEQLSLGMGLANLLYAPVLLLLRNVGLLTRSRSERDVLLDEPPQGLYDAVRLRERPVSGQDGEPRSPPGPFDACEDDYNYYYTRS

T1 sequence (O55242 whole entry): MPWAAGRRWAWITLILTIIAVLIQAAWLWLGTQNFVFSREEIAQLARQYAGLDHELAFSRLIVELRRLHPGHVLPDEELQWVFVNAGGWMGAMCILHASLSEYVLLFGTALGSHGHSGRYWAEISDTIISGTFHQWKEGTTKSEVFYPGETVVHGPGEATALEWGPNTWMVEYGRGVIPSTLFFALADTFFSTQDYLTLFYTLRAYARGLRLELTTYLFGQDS

| Ki [1] [nM] | SMILES | in vivo PET blocking of [18F]FTC-146 (1 mg/kg), with S1R-KO control (sigma-1 receptor (S1R)) |
| --- | --- | --- |
|  | CN(C)CCN(C)CCc1ccc(Cl)c(Cl)c1 [BD1047] | following receptor blocking with a known S1R antagonist (BD-1047), showed similarly rapid washout of tracer |
| 450 ± 80 | O=c1sc2cc(CCCF)ccc2n1CCN1CCCCCC1 [FTC-146] |  |
